According to publication PMC8225959, “Clickable Radiocomplexes With Trivalent Radiometals for Cancer Theranostics: In vitro and in vivo Studies” (Frontiers in Medicine, 2021):
Each block holds one molecule with its values, some of them ahead of it.

Key:
[1] = in vivo; conditions: male, NodCB17 SCID, mouse, iv, 0.061 nmol, total radioactivity
Description: Searching for a preliminary proof of concept of the intended pre-targeting approach, we synthesized a clickable TCO-containing bombesin antagonist (TCO-PEG4-AR) based on the potent GRPr antagonist AR reported in the literature, as described in the Supplementary Material ([29]). We hypothesized that the antagonist, when bound to the surface of human PC3 cells, would be available for the in vivo click reaction with the Tz-containing radiocomplex. As a control, the biodistribution data of the preformed [^90Y]Y-DOTA-Tz-TCO-PEG4-AR in PC3-xenografts bearing mice at 15 min and 1 h p.i. are available in Supplementary Table 5. For the pre-targeting approach, the tumor-bearing mice were injected with 1 nmol of the clickable bombesin antagonist and, after 4 h, we injected the radiocomplex [^90Y]Y-DOTA-Tz. […] In parallel, pre-targeting experiments based on ex-vivo biodistribution studies were performed in the same way for the congener [^111In]In-DOTA-Tz, and using the same animal model. […]
(§1) from whole animal body. Blood samples were taken by cardiac puncture at sacrifice. Tissue samples of the main organs were then dissected, weighted and counted in a gamma counter (Berthold).
(§2) Biodistribution results were expressed as percentage of the injected dose per gram tissue (%I.D./g) in the form of an average with standard deviation (%ID/g; mean ± standard deviation (SD).
(§3) Biodistribution in PC3 bearing mice
(§4) Male, 5-6 weeks old NodCB17 SCID mice were obtained from Janvier Lab., France. Mice were housed under pathogen-free conditions with food and water ad libitum, and a 12-12 hour light-dark cycle.
(§5) Veterinarian staff and investigators observed the mice daily to ensure animal welfare and determine if human endpoints (e.g., hunched and ruffled appearance, apathy, ulceration, severe weight loss, tumour burden) were reached. The mice were subcutaneously injected in the shoulder with 200 µL bolus containing a suspension of […] freshly harvested human prostatic cell line PC3 in Matrigel™ Basement Membrane Matrix (BD Sciences) under anaesthesia with 2% isoflurane. The animals were kept under pathogen-free condition and experiments were performed 2–3 weeks later when a tumour reached a volume of approximate 390 ± 190 mm3. Animals were allocated into treatment groups using a complete […]
(§6) The examination of physiological distribution for [90Y]Y-DOTA-Tz were carried out on 4 mice (n = 4). For the control bolus, 0.061 nmol, 0.1 mL, 7.5 µCi of [90Y]Y-DOTA-Tz was intravenously injected by tail vein. The examination of physiological distribution for [90Y]Y-DOTA-Tz-TCO-PEG4-AR were carried out on groups of 8 mice (n = 4). For the control bolus, 0.061 nmo l, 0.1 mL, 7.5 µCi of 90Y-DOTA-Tz TCO-PEG4-AR was intravenously injected by tail vein. At appropriate time points (15 min, 1h or 2h after-injection), the animals were euthanized, tissues of interest were dissected, weighted, and […]

[2] = in vivo; conditions: male, NodCB17 SCID, mouse, iv, total radioactivity
Description: as §1, §2, §3, §4, §5
as §6, with “and their radioactivity was measured using NaI gamma counter supplied with adapter for the whole-body” for “and”
Biodistribution of 111In-DOTA-Tz-TCO-PEG4-AR was performed by intravenous injection of 100 µL (50 – 75 µCi) of the preparation into mice (n =4) via the tail vein. Immediately after injection, radioactive dosage administered into each animal was measured in a dose calibrator (Capintec CRC25R). For the in vivo click chemistry studies in the same PC3 xenografts (n=3), a bolus of 1 nmol of TCO-PEG4-AR, dissolved in 0.1 mL of saline, was injected in the tail vein, and after 4h the [111In]In-DOTA-Tz (0.1mL, 50 – 75 µCi µCi). After 1 h of administration of the radioactive preparations, the mice groups were sacrificed by cervical dislocation and the radioactivity in the sacrificed animal was measured. The difference between the radioactivity in the injected and the sacrificed animal was assumed to be due to total excretion. The animals were weighed and dissected. Then, tissues of interest were removed, weighed and counted in a γ-counter (Berthold, LB211, Germany).
For all the performed biodistribution studies, selected organs and tissues were assayed for their radioactivity and weighted. The physiological distribution was then calculated and expressed in terms of the percentage of the administrated radioactivity found in each of the selected organs or tissues per gram (%ID/g) in the form of an average with standard deviation (%ID/g; mean ± standard deviation
(1 picture or pasted object on this page, not shown here)

[3] = Biodistribution of [111In]In-radiocomplexes in healthy mice; type: in vivo
Method: We performed a biodistribution study of the four [^111In]In-radiocomplexes in healthy mice to determine the clearance rate from systemic blood circulation and the tissue/organ distribution over time. […] The urinary tract was identified as the main excretory pathway since the highest % I.D./g values were found in the kidneys for all the radiocomplexes, associated to rapid radioactivity excretion both at 15 min and 1 h p.i. […] page 9: from whole animal body. Blood samples were taken by cardiac puncture at sacrifice. […] The animals were kept under […] volume of approximate 390 ± 190 mm3. […] […] carried out on groups of 8 mice (n = 4). […] The animals were weighed and dissected.

Compound: CC(C)C[C@H](NC(=O)C[C@H](O)[C@H](CC(C)C)NC(=O)[C@H](Cc1c[nH]cn1)NC(=O)CNC(=O)[C@@H](NC(=O)[C@H](C)NC(=O)[C@H](Cc1c[nH]c2ccccc12)NC(=O)[C@H](CCC(N)=O)NC(=O)[C@@H](Cc1ccccc1)NC(=O)CCOCCOCCOCCOCCNC(=O)OC1CCCC2=CNN=C(c3ccc(CNC(=O)CN4CCN(CC(=O)O)CCN(CC(=O)O)CCN(CC(=O)O)CC4)cc3)C2CC1)C(C)C)C(N)=O (stereo partly shown) [[90Y]Y-DOTA-Tz-TCO-PEG4-AR, metal not drawn]
- radiochemical purity after incubation in HS (human serum, 37 °C, 6 days, ITLC (citrate buffer pH 5.5, 0.1 M)): above 99%
- stability of the preparation after radiolabelling (room temperature, HPLC): stable up to 24 hours
- tissue uptake at 0.25 h ([1]; blood): 14.9 ± 3.89 %ID/g
- tissue uptake at 1 h ([1]; blood): 2.65 ± 0.65 %ID/g
- tissue uptake at 0.25 h ([1]; bone): 3.15 ± 1.87 %ID/g
- tissue uptake at 1 h ([1]; bone): 0.7 ± 0.29 %ID/g
- tissue uptake at 0.25 h ([1]; heart): 3.55 ± 0.62 %ID/g
- tissue uptake at 1 h ([1]; heart): 0.61 ± 0.27 %ID/g
- tissue uptake at 0.25 h ([1]; kidneys): 20.5 ± 7.97 %ID/g
- tissue uptake at 1 h ([1]; kidneys): 2.94 ± 0.44 %ID/g
- tissue uptake at 0.25 h ([1]; large intestine): 3.98 ± 0.68 %ID/g
- tissue uptake at 1 h ([1]; large intestine): 0.67 ± 0.19 %ID/g
- tissue uptake at 0.25 h ([1]; liver): 7.35 ± 3.27 %ID/g
- tissue uptake at 1 h ([1]; liver): 0.82 ± 0.1 %ID/g
- tissue uptake at 0.25 h ([1]; lung): 7.48 ± 1.92 %ID/g
- tissue uptake at 1 h ([1]; lung): 1.57 ± 0.63 %ID/g
- tissue uptake at 0.25 h ([1]; muscle): 2.36 ± 0.33 %ID/g
- tissue uptake at 1 h ([1]; muscle): 0.41 ± 0.12 %ID/g
- tissue uptake at 0.25 h ([1]; pancreas): 32 ± 3.86 %ID/g
- tissue uptake at 1 h ([1]; pancreas): 14 ± 1.99 %ID/g
- tissue uptake at 0.25 h ([1]; prostate): 26.3 ± 18 %ID/g
- tissue uptake at 1 h ([1]; prostate): 3.48 ± 3.63 %ID/g
- tissue uptake at 0.25 h ([1]; salivary gland): 3.69 ± 1.39 %ID/g
- tissue uptake at 1 h ([1]; salivary gland): 0.6 ± 0.18 %ID/g
- tissue uptake at 0.25 h ([1]; small intestine): 2.74 ± 0.28 %ID/g
- tissue uptake at 1 h ([1]; small intestine): 0.99 ± 0.32 %ID/g
- tissue uptake at 0.25 h ([1]; spleen): 4.03 ± 2.21 %ID/g
- tissue uptake at 1 h ([1]; spleen): 1.08 ± 0.39 %ID/g
- tissue uptake at 0.25 h ([1]; stomach): 4.72 ± 0.38 %ID/g
- tissue uptake at 1 h ([1]; stomach): 1.95 ± 0.39 %ID/g
- tissue uptake at 0.25 h ([1]; thyroid): 6.57 ± 3.95 %ID/g
- tissue uptake at 1 h ([1]; thyroid): 0.99 ± 0.5 %ID/g
- tissue uptake at 0.25 h ([1]; tumour): 6.32 ± 1.28 %ID/g
- tissue uptake at 1 h ([1]; tumour): 2.26 ± 0.93 %ID/g

Compound: CC(C)C[C@H](NC(=O)C[C@H](O)[C@H](CC(C)C)NC(=O)[C@H](Cc1c[nH]cn1)NC(=O)CNC(=O)[C@@H](NC(=O)[C@H](C)NC(=O)[C@H](Cc1c[nH]c2ccccc12)NC(=O)[C@H](CCC(N)=O)NC(=O)[C@@H](Cc1ccccc1)NC(=O)CCOCCOCCOCCOCCNC(=O)OC1CCCC2=CNN=C(c3ccc(CNC(=O)CN4CCN(CC(=O)O)CCN(CC(=O)O)CCN(CC(=O)O)CC4)cc3)C2CC1)C(C)C)C(N)=O (stereo partly shown) [[111In]In-DOTA-Tz-TCO-PEG4-AR, metal not drawn]
- stability in CCM (cell culture media, 37 °C, up to 24 hours): excellent stabilities in CCM, with no degradation issues
- tissue uptake at 1 h ([2]; blood): 1.2 ± 0.4 %ID/g
- tissue uptake at 1 h ([2]; bone): 0.5 ± 0.1 %ID/g
- tissue uptake at 1 h ([2]; heart): 0.5 ± 0.3 %ID/g
- tissue uptake at 1 h ([2]; intestine): 1.09 ± 0.08 %ID/g
- tissue uptake at 1 h ([2]; kidney): 3.7 ± 1.1 %ID/g
- tissue uptake at 1 h ([2]; liver): 0.74 ± 0.06 %ID/g
- tissue uptake at 1 h ([2]; lung): 0.7 ± 0.2 %ID/g
- tissue uptake at 1 h ([2]; muscle): 0.3 ± 0.11 %ID/g
- tissue uptake at 1 h ([2]; spleen): 0.4 ± 0.1 %ID/g
- tissue uptake at 1 h ([2]; stomach): 0.9 ± 0.2 %ID/g
- tissue uptake at 1 h ([2]; tumour): 2.5 ± 0.7 %ID/g

- Biodistribution: Blood ([3]; 15 min p.i.): 3.7 ± 0.6 % I.D./g
- Biodistribution: Bone ([3]; 15 min p.i.): 0.8 ± 0.2 % I.D./g
- Biodistribution: Heart ([3]; 15 min p.i.): 1.2 ± 0.6 % I.D./g
- Biodistribution: Intestine ([3]; 15 min p.i.): 0.31 ± 0.05 % I.D./g
- Biodistribution: Kidney ([3]; 15 min p.i.): 4.8 ± 0.7 % I.D./g
- Biodistribution: Liver ([3]; 15 min p.i.): 0.8 ± 0.1 % I.D./g
- Biodistribution: Lung ([3]; 15 min p.i.): 1.4 ± 0.2 % I.D./g
- Biodistribution: Muscle ([3]; 15 min p.i.): 0.86 ± 0.07 % I.D./g
- Biodistribution: Pancreas ([3]; 15 min p.i.): 0.53 ± 0.05 % I.D./g
- Biodistribution: Spleen ([3]; 15 min p.i.): 0.6 ± 0.2 % I.D./g
- Biodistribution: Stomach ([3]; 15 min p.i.): 1.0 ± 0.5 % I.D./g
- Excretion ([3]; 15 min p.i.): 62.7 ± 2.6 % I.D.
- Biodistribution: Blood ([3]; 1 h p.i.): 0.7 ± 0.4 % I.D./g
- Biodistribution: Bone ([3]; 1 h p.i.): 0.17 ± 0.09 % I.D./g
- Biodistribution: Heart ([3]; 1 h p.i.): 0.13 ± 0.08 % I.D./g
- Biodistribution: Intestine ([3]; 1 h p.i.): 0.4 ± 0.2 % I.D./g
- Biodistribution: Kidney ([3]; 1 h p.i.): 2.2 ± 0.6 % I.D./g
- Biodistribution: Liver ([3]; 1 h p.i.): 0.3 ± 0.2 % I.D./g
- Biodistribution: Lung ([3]; 1 h p.i.): 0.3 ± 0.2 % I.D./g
- Biodistribution: Muscle ([3]; 1 h p.i.): 0.2 ± 0.1 % I.D./g
- Biodistribution: Pancreas ([3]; 1 h p.i.): 0.12 ± 0.07 % I.D./g
- Biodistribution: Spleen ([3]; 1 h p.i.): 0.11 ± 0.05 % I.D./g
- Biodistribution: Stomach ([3]; 1 h p.i.): 1.1 ± 0.8 % I.D./g
- Excretion ([3]; 1 h p.i.): 87.1 ± 6.9 % I.D.
Compound: O=C([O-])CN1CCN(CC(=O)[O-])CCN(C(CCC(=O)NCCOCCOCCOCCOCCOCCOCCOCCOCCOCCOCCOCCNC(=O)CCCC(=O)NCc2ccc(-c3nncnn3)cc2)C(=O)[O-])CCN(CC(=O)[O-])CC1.[111In+3] (stereo not shown) [[111In]In-DOTAGA-PEG-Tz]
